Measurements published in article PMC7377361, “Pressurized DNA state inside herpes capsids—A novel antiviral target” (PLoS Pathogens, 2020).
Where no end group is shown, it is not given here.

Assays:
[1] = Cytotoxicity assay in uninfected HFF-1 cells; conditions: human
Method: In parallel, for each DNA condensing compound, we determined the cytotoxicity concentration (CC50 value) using standard in vitro cellular replication assays in human foreskin fibroblast (HFF) cells (used as a standard for herpesvirus replication in vitro assays for antiviral compound tests)[48]. Cytotoxicity assays were performed on a parallel set of six-well plates containing confluent monolayers of HFF-1 cells at the same cell amount as used for antiviral plaque reduction assays for EC50 value determination, but cells were uninfected[48].
Cytotoxicity assays were performed on a parallel set of six-well plates containing HFF-1 cells that received the same compound concentrations as used for the antiviral assays but remained uninfected. […]
Each compound was evaluated in a standard cytotoxicity assay by standard methods [100]. […] The optical density was then determined at 550 nm and CC50 values were interpolated from the experimental data.
The inhibition of either Vero cell or HFF-1 cell proliferation was used to refine estimates of cytotoxicity for the compounds and was performed according to standard procedures [101]. […] The plates were incubated for 72 h at 37°C; the cells were then dislodged with trypsin and counted on a Beckman Coulter Counter. […]

[2] = In vivo toxicity studies in mice (NIH/NIAID preclinical service); conditions: for %Lymphocyte / Hematocrit / WBC / AST / Alb:Glob Ratio / Albumin / Amylase / Bile Acids / Cholesterol / Creatine Kinase / GGT / Globin / Total Protein / Triglyceride / BUN / Ca:Phos Ratio / Calcium / Chloride / Glucose / K / Na / Na:K Ratio / Phosphorus / Uric Acid: Mean; for %Lymphocyte / Hematocrit / WBC: CBC (n=1-2); for AST / Alb:Glob Ratio / Albumin / Amylase / Bile Acids / Cholesterol / Creatine Kinase / GGT / Globin / Total Protein / Triglyceride: LIVER (n=5); for BUN / Ca:Phos Ratio / Calcium / Chloride / Glucose / K / Na / Na:K Ratio / Phosphorus / Uric Acid: RENAL (n=5)
Method: A control group was treated with PBS. […] No signs of distress or significant weight loss were observed during the 4 days of treatment. […]
B. In vivo toxicity studies in mice for bPEI 600 and DAB-Am-4. Experiments were conducted through NIAID/NIH preclinical service agreement No HHSN272201700017I/ […]
Procedures and Endpoints:
1- Baseline weights of all mice
2- IP treatment (twice a day, for 4 days)
3- Daily assessment of weights and condition
4- All animals sacrificed the following morning after the last evening treatment 5- Blood samples collected by IC stick for lab tests (liver, spleen and blood profiles) 6- Internal organs examined for signs of gross tissue toxicity
1. Toxicity evaluation of bPEI 600 Da in mice.
A toxicity screen was performed in uninfected mice treated with 3 doses of bPEI 600 Da, administered for 4 days. In this study, 3 doses of 5, 10 and 25 mg/kg/day were administered twice daily IP for 4 days (n=4/group). A control group was treated with the vehicle (PBS). The mice were examined daily and the weights and general condition were recorded daily. To examine liver, renal and blood function parameters, blood samples were obtained by intracardiac puncture at the end of the study (the following day after last dose) and the mice were sacrificed to examine the internal organs for signs of gross tissue toxicity.
The weights were recorded
In order to confirm the results of the lab results obtained in the toxicity study, a second group of slightly larger mice were treated with the high and the low doses of bPEI 600 Da (25 mg/kg and 5 mg/kg, n=6/group) and the vehicle control (PBS, n=4) for 4 days. Blood samples were collected at the end of the study for liver and renal chemistry profiles. The results are shown in the next […]
REN AL PBS 5 mg/kg 25 mg/kg
LIVER PBS 5 mg/kg 25 mg/kg
Al b:Gl ob R a ti o 1 1 1 […]
obtained from the second group of mice treated with bPEI 600 Da for 4 days.
No signs of distress or significant weight loss were ere observed during the […]
show significant differences with the results obtained in the PBS treated group of control mice.
Statistical analysis: Means were compared by Student’s t test, and mortality was compared by Fisher’s exact test, where applicable.
Ethics regulation of Laboratory animals: Animals were housed in facilities approved by the Association for Assessment and Accreditation of Laboratory Animal Care and Use Committee
2. Toxicity evaluation of DAB-Am-4 in mice.
A toxicity screen in uninfected mice was performed. 2 doses of 5 and 25 mg/kg/day were administered twice daily IP for 4 days (n=6/group). A control group was treated with the vehicle […]
The mice were examined daily and the weights and general condition were recorded. […]

[3] = mice, 25 mg/kg/day twice daily IP, 4 days
[4] = mice, 5 mg/kg/day twice daily IP, 4 days

RRRRR [Arg^5+]
CC50 at 7 days [1]: 83 µM

NCCCN(CCCN)CCCCN(CCCN)CCCN [DAB-Am-4]
CC50 (HFF-1 cells): 15 µM
weight loss [2, 3]: ~ 10%
weight loss from baseline [2, 3]: 2.0 g
tolerability ([2]; mice, 5, 10 and 25 mg/kg/day, twice daily IP, 4 days): tolerated well
signs of acute toxicity (lab tests) ([2]; mice, 5 and 25 mg/kg/day DAB-Am-4, 5 mg/kg/day DAB-Am-8): no conclusive signs of acute toxicity
signs of distress during the observation period ([2]; mice, low dose 5 mg/kg/day): no significant signs
%Lymphocyte [2, 4]: 67%
Hematocrit [2, 4]: 43
WBC [2, 4]: 7
AST [2, 4]: 402
Alb:Glob Ratio [2, 4]: 1
Albumin [2, 4]: 3
Amylase [2, 4]: 792
Bile Acids [2, 4]: 134
Cholesterol [2, 4]: 91
Creatine Kinase [2, 4]: 2340
GGT [2, 4]: < 1
Globin [2, 4]: 2
Total Protein [2, 4]: 5
Triglyceride [2, 4]: 118
BUN [2, 4]: 35
Ca:Phos Ratio [2, 4]: 1
Calcium [2, 4]: 9
Chloride [2, 4]: 104
Glucose [2, 4]: 221
K [2, 4]: 7
Na [2, 4]: 143
Na:K Ratio [2, 4]: 22
Phosphorus [2, 4]: 11
Uric Acid [2, 4]: 3
%Lymphocyte [2, 3]: 61%
Hematocrit [2, 3]: 36
WBC [2, 3]: 4
AST [2, 3]: 414
Alb:Glob Ratio [2, 3]: 1
Albumin [2, 3]: 3
Amylase [2, 3]: 760
Bile Acids [2, 3]: 13
Cholesterol [2, 3]: 85
Creatine Kinase [2, 3]: 3089
GGT [2, 3]: < 1
Globin [2, 3]: 2
Total Protein [2, 3]: 5
Triglyceride [2, 3]: 149
BUN [2, 3]: 36
Ca:Phos Ratio [2, 3]: 1
Calcium [2, 3]: 9
Chloride [2, 3]: 106
Glucose [2, 3]: 182
K [2, 3]: 6
Na [2, 3]: 147
Na:K Ratio [2, 3]: 25
Phosphorus [2, 3]: 9
Uric Acid [2, 3]: 5
